Results reported in PMC11477298, “Small Molecules Inducing Autophagic Degradation of Expanded Polyglutamine Protein through Interaction with Both Mutant ATXN3 and LC3” (International Journal of Molecular Sciences, 2024).

Assays:
Assay type in all cases: cell-based, human
[1] = tested on: ATXN3-Q75-GFP SH-SY5Y cells; experiment: High-content neurite outgrowth assay; conditions: compound 10 µM, range over the four named compounds; for Neurite branch: untreated 1.16; for Neurite process: untreated 2.41; for Neurite length: untreated 23.2 µm
Protocol: ATXN3-Q75-GFP SH-SY5Y cells (5 × 10^4/well) were plated onto 24-well plates, with retinoic acid addition (10 µM; Sigma-Aldrich) on day 1 to initiate neuronal differentiation. On day 2, the cells were pretreated with disaccharide trehalose (10 mM, as a positive control) or the studied compounds (10 μM) for 8 h, followed by the addition of doxycycline (5 μg/mL, Sigma-Aldrich) to induce ATXN3-Q75-GFP expression. The cells were kept in the medium containing retinoic acid, the test compound, and doxycycline for 6 days, with the culture medium changed on day 5. ATXN3-Q75 aggregation and neurite outgrowth assays were performed on day 8 using a high-content imaging system (ImageXpress Micro Confocal; Molecular Devices).
For the aggregation assay, cells were stained with Hoechst 33342 (0.1 µg/mL; Sigma-Aldrich) at 37 °C for 30 min. Images of the cells were automatically obtained at excitation/emission wavelengths of 482/536 nm (FITC [fluorescein isothiocyanate] filter) for enhanced GFP and 377/447 nm (DAPI [4′,6-diamidino-2-phenylindole] filter) for nucleus counting. ATXN3-Q75 aggregation was determined by Transfluor technology based on GFP fluorescence intensity. For the neurite outgrowth assay, cells were fixed with 4% paraformaldehyde for 30 min, permeabilized with 0.1% Triton X-100 for 10 min, and blocked by non-specific binding with 3% bovine serum albumin for 20 min. The primary TUBB3 (neuronal class III β-tubulin) antibody (1:1000; BioLegend #802001, San Diego, CA, USA) was used to stain cells at 4 °C overnight, followed by Alexa Fluor 555-donkey anti-rabbit IgG secondary antibody (1:1000; Invitrogen #A-31572) staining for 2 h at room temperature. Nuclei were detected using DAPI (0.1 μg/mL; Sigma-Aldrich). Cell images were obtained at excitation/emission wavelengths of 531/593 nm (TRITC [tetramethylrhodamine] filter) for stained neurites and 377/447 nm (DAPI filter) for nuclei. To quantify neurite outgrowth, microscopic images were segmented with multi-colored masks to assign each outgrowth to a cell body for quantification. Neurite total length (μm) and numbers of process (primary neurites originating from neuronal cell body) and branch (secondary neurites extended from primary neurites) were analyzed (Neurite Outgrowth Application Module; Molecular Devices). In general, […] in each biological replicate were analyzed.

[2] = MTT compound cytotoxicity assay; conditions: human, ATXN3-Q75-GFP SH-SY5Y cells, 0.1–100 μM compound, viability analyzed the next day, n = 3
Protocol: For the compound cytotoxicity assay, ATXN3-Q75-GFP SY5Y cells (2 × 10^4) were plated into 96-well dishes, grown for 20 h, and treated with 0.1–100 μM test compounds. After 1 day, 3-(4,5-dimethylthiazol-2-yl)-2,5-diphenyltetrazolium bromide (MTT, 5 mg/mL) (Sigma-Aldrich, St. Louis, MO, USA) was added to the cells and incubated for 3 h at 37 °C. Lysis buffer (10% Triton X-100, 0.1 N HCl, 18% isopropanol) was then added to dissolve the insoluble formazan crystals. The absorbance of the purple-colored solution was measured at optical density (OD) 570 nm by using a FLx800 fluorescence microplate spectrophotometer (Bio-Tek, Winooski, VT, USA). The half-maximal inhibitory concentration (IC50) was calculated through the construction of a dose–response curve.

[3] = tested on: 293T cells co-expressing ATXN3-Q75-VC and VN-LC3; experiment: BiFC high-content analysis of transfected 293T cells; conditions: compound 10 μM; 24 h post-induction; untreated = 100%; range over the three named compounds
Text: pTRE3G-BI-VN-LC3-ATXN3-Q14−75-VC was constructed by subcloning the ATXN3-Q14−75-VC KpnI-XbaI fragment and VN-LC3 BamHI fragment of the aforementioned plasmids into the corresponding restriction sites in multiple cloning site (MCS)-2 (ATXN3-Q14−75-VC fragment) or MCS-1 (VN-LC3 fragment) of the pTRE3G-BI vector (Clontech, Mountain View, CA, USA). The resulting plasmid allows the simultaneous expression of ATXN3-Q14−75-VC and VN-LC3 proteins from a bidirectional, Tet-responsive promoter that binds the Tet-On 3G trans-activator protein in the presence of doxycycline and co-transfected pCMV-Tet3G. Next, 293T cells (2 × 10^5) were plated onto 6-well plates on day 1. Upon the next day, the constructed pTRE3G-BI-VN-LC3-ATXN3-Q 14−75-VC (2 μg) together with pCMV-Tet3G (0.5 μg) were transiently co-transfected into cells using GenJet in vitro DNA transfection reagent (SignaGen Laboratories #SL100488, Rockville, MD, USA). Doxycycline (1 μg/mL) was added to cells to induce ATXN3-Q14−75-VC and VN-LC3 expression on day 3. Cell lysates were prepared at 24 h post-induction and analyzed by Western blot using ataxin-3 (1:1000; Invitrogen #PA5-26251) or LC3 (1:2000; MBL International #PM036) antibody. In addition, at 0, 6, 9, 12, and 24 h post-transfection, the pTRE3G-BI-VN-LC3-ATXN3-Q75-VC transfected cells were fixed, permeabilized, blocked, and stained with 5TF1-1C2 (1:1000; Merck #MAB1574) antibody at 4 °C overnight, followed by Cy5-donkey anti-mouse IgG secondary antibody (1:1000; Jackson ImmunoResearch #715-175-151) staining for 2 h at room temperature. Nuclei were counterstained with DAPI (0.1 μg/mL; Sigma-Aldrich). Cell images were obtained at excitation/emission wavelengths of 482/536 nm (FITC filter) for Venus, 631/692 nm (Cy5 filter) for stained expanded ATXN3-Q75 protein, and 377/447 nm (DAPI filter) for detecting nuclei (ImageXpress Micro Confocal; Molecular Devices).
On day 3, doxycycline (1 μg/mL) was added to the aforementioned transfected 293T cells along with NC009-1, -2, or -6 or LM-031 (10 μM). At 24 h post-transfection, the transfected cells were fixed, permeabilized, blocked, and stained with 5TF1-1C2 antibody, as described. After nucleus staining (DAPI, 0.1 μg/mL), the captured images were analyzed as described for overlapped ATXN3-Q75 and Venus signals and the green fluorescence of Venus-tagged LC3 puncta using the high-content imaging system, as described.

| SMILES | Neurite branch [1] | Neurite process [1] | Neurite length [1] | IC50 at 1 day [2] [µM] | Green fluorescence of Venus-tagged LC3 puncta [3] | Overlapping of green (Venus) and red (ATXN3-Q75) signals [3] |
| --- | --- | --- | --- | --- | --- | --- |
| O=C(c1ccccc1)c1cc2c(O)cccc2oc1=O [LM-031] | 1.34–1.37 | 2.55–2.57 | 26.1–26.9 µm | > 100 | 121–122% | 117–119% |
| CC(=O)/C(=C\c1ccccc1[N+](=O)[O-])Cc1c[nH]c2ccccc12 [NC009-1] | 1.34–1.37 | 2.55–2.57 | 26.1–26.9 µm | 111 | 121–122% | 117–119% |
| CC(=O)/C(=C\c1ccccc1[N+](=O)[O-])Cc1c(C)[nH]c2ccccc12 [NC009-2] | 1.34–1.37 | 2.55–2.57 | 26.1–26.9 µm | 124 | 121–122% | 117–119% |
